In US11021476B2, “Pyrroloquinoline quinone monosodium and method for producing the same, and composition comprising the same” (Mitsubishi Gas Chemical Company, Inc., priority 2016, dated 2021):

How the values were obtained:
[1] = Thermal stability test (70° C. color change test); type: physicochemical; conditions: 1 mg crystals in 70° C. oven
Method: 1 mg of the crystals obtained in each of Examples 1 and 6 and Comparative Example 2 were placed in a 70° C. oven, and a change in color after 2 hours was observed.

Suspension fluidity test = type: physicochemical; conditions: 100 g/L in water, mixed at room temperature, observed at 4° C.
[2] = Solubility and color of mixtures; type: physicochemical
Method: Powders were mixed in a proportion shown in Table 3, and the color of the powder was recorded. 1 mL of water was added to a crystal mass of 10 mg at room temperature. […] The aqueous solution after the cooling was centrifuged, and the supernatant liquid was removed. This was diluted with a phosphate buffer, and the solubility was calculated from absorbance at 330 nm.

[3] = Thermal stability test (solubility change at 180° C. for 10 minutes); type: physicochemical; conditions: for State of dissolution after heating at 180° C. for 10 minutes: 1 mg heated on hot plate, then 10 mL water, stirred 15 minutes; for State of dissolution after heating at 180° C. for 10 minutes (with 100 before heating): solubility from absorbance at 330 nm, solubility before heating = 100
Method: Whether the solubility of crystals changed by heat treatment was tested. […] At this time, the state was recorded. The aqueous solution after the stirring was filtered through a 0.5 μm filter and diluted to 1/10, and absorbance at 330 nm was measured. A change in the solubility of the crystals before and after the heat treatment was examined by this measurement.

Bulk density measurement = type: physicochemical; conditions: 10 mL volumetric flask
Method: Bulk density was measured using a 10 mL volumetric flask.

[4] = Test of penetration into skin; conditions: 5 mg crystals on pig skin, 80 minutes at 37° C.; [(untreated − treated)/untreated brightness]×100
Method: The skin of a pig was washed with tap water, and the water was completely wiped off. 5 mg of one of crystals was brought into contact with this skin of the pig and then fixed to the skin by wrapping in plastic wrap. After 80 minutes at 37° C., the tape was peeled, and the skin was washed with tap water to remove the test composition adhering to the skin surface. Evaluation was performed by capturing an image of the test composition by a scanner and measuring a change in the brightness of the skin using image software (product name: Paint (software included with Windows (registered trademark) XP, manufactured by Microsoft Corporation). At this time, the change in the brightness of the skin was calculated by [[brightness of untreated skin−brightness after treatment]/[brightness of untreated skin]]×100.

[5] = Reaction with powdered green tea; type: physicochemical; conditions: 2 mg powdered green tea + 1 mg crystals + 100 μL water
Method: 2 mg of powdered green tea and 1 mg of the crystals obtained in each of Examples 1 and 6 and Comparative Example 2 were mixed. As a model in which the mixed powder was wet, 100 μL of water was added. […] The crystals 2 were very stable and excellent in powder mixing.

Compound | Change in color after 2 hours at 70° C. [1] | Fluidity when crystals are added to water (Suspension fluidity test) | Solubility ([2]; 10 mg in 1 mL water, ultrasonic 5 min, 70 degrees 10 min, cooled 30 min at room temperature, absorbance at 330 nm) [mM] | Color in form of powder [2] | State of dissolution after heating at 180° C. for 10 minutes [3] | State of dissolution after heating at 180° C. for 10 minutes (with 100 before heating) [3] | Bulk specific gravity (Bulk density measurement) [g/mL] | Penetration (change in the brightness of the skin) [4] | Color change of tea leaves [5] | solubility at 30 min ([2]; thermodynamic from solid, 10 mg in 1 mL water, ultrasonic 5 min, 70 degrees 10 min, cooled 30 min at room temperature, absorbance at 330 nm) [mM]
Dipyrroloquinoline quinone monosodium [Example 7] | No change | Yes | 2.1 | Black | All dissolve | 100 | 0.27 | 4.3 | did not change color | 
O=C(O)c1cc(C(=O)[O-])c2c(n1)C(=O)C(=O)c1cc(C(=O)O)[nH]c1-2.[Na+] [Comparative Example 2, reference compound] | Change to black | No |  |  |  | 71 | 0.20 | 1.6 | changed color to orange | 
O=C(O)c1cc(C(=O)O)c2c(n1)C(=O)C(=O)c1cc(C(=O)O)[nH]c1-2.[Na].[Na] [Raw material, pyrroloquinoline quinone disodium, reference compound] |  |  |  | Red |  |  |  |  |  | 
O=C(O)c1cc(C(=O)O)c2c(n1)C(=O)C(=O)c1cc(C(=O)O)[nH]c1-2.[Na] [Example 1, Pyrroloquinoline Quinone Monosodium] | No change | Yes |  | Deep red | All dissolve | 82 | 0.29 | 8.4 | changed color to orange | 4.5
